From patent publication US9656971B2, “COMT inhibitors” (Hoffmann-La Roche Inc., priority 2012, dated 2017)
Counter-ions that a name gives are not always drawn. Like-named read-outs stand apart in the source and are kept apart here.

Molecular target: T1, Rec. human COMT (Homo sapiens, UniProt P21964)
T1 sequence (P21964 1-271): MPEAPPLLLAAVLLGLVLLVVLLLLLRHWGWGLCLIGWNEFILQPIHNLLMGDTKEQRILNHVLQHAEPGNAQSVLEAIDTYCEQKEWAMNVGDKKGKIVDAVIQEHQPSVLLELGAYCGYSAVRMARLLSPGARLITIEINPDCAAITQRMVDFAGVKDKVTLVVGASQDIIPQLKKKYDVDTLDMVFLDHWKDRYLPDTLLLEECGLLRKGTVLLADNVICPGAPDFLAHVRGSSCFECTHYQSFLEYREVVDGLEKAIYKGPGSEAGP
Assay: COMT-Fluorescence Assay
Format: biochemical
Settings: rec. human COMT 25 nM, 4-Nitrocatechol-Alexa488 200 nM, SAM 500 nM
Experimental: This intramolecular interaction is disturbed if the 4-Nitrocatechol is methylated. […] This increase of fluorescence intensity can be followed in a kinetic measurement. The slope in the linear range of the kinetic is calculated. An inhibitor compound decreases the slope.
Signal [rfu/min]=(rfu(end-point)−rfu(startpoint))/incubation_time_#2

[1] = COMT-fluorescence assay, read-out: IC50

SMILES	IC50 [1]	IC50 (IC50, COMT-fluorescence assay)
Cc1ccc(-c2c(-c3ccc(F)cc3)cc(O)c3nc[nH]c(=O)c23)cc1 [Example 50, 6-(4-Fluorophenyl)-8-hydroxy-5-p-tolylquinazolin-4(3H)-one]	0.01 µM	
Cc1ccc(-c2c(-c3ccc(F)cc3)c(Br)c(O)c3nc[nH]c(=O)c23)cc1 [Example 51, 7-bromo-6-(4-fluorophenyl)-8-hydroxy-5-p-tolylquinazolin-4(3H)-one]	0.26 µM	
CS(=O)(=O)c1cccc(-c2c(-c3ccc(F)cc3)cc(O)c3nc[nH]c(=O)c23)c1 [Example 52, 6-(4-Fluorophenyl)-8-hydroxy-5-(3-(methylsulfonyl)phenyl)quinazolin-4(3H)-one]	0.01 µM	
O=c1[nH]cnc2c(O)cc(-c3ccc(F)cc3)c(-c3cccc(C(F)(F)F)c3)c12 [Example 53, 6-(4-Fluorophenyl)-8-hydroxy-5-(3-(trifluoromethyl)phenyl)quinazolin-4(3H)-one]	0.02 µM	
N#Cc1c(-c2ccc(F)cc2)cc(O)c2nc[nH]c(=O)c12 [Example 54, 6-(4-Fluorophenyl)-8-hydroxy-4-oxo-3,4-dihydroquinazoline-5-carbonitrile]	0.06 µM	
CCN(CC)C(=O)c1ccc(-c2c(-c3ccc(F)cc3)cc(O)c3nc[nH]c(=O)c23)cc1 [Example 55, N,N-Diethyl-4-(6-(4-fluorophenyl)-8-hydroxy-4-oxo-3,4-dihydroquinazolin-5-yl)benzamide]	0.01 µM	
O=c1[nH]cnc2c(O)cc(-c3ccc(F)cc3)c(-c3ccncc3)c12 [Example 56, 6-(4-Fluorophenyl)-8-hydroxy-5-(pyridin-4-yl)quinazolin-4(3H)-one]	0.01 µM	
CS(=O)(=O)c1ccc(-c2c(-c3ccc(F)cc3)cc(O)c3nc[nH]c(=O)c23)cc1 [Example 57, 6-(4-Fluorophenyl)-8-hydroxy-5-(4-(methylsulfonyl)phenyl)quinazolin-4(3H)-one]	0.01 µM	
Cc1cc(-c2c(-c3ccc(F)cc3)cc(O)c3nc[nH]c(=O)c23)ccn1 [Example 58, 6-(4-Fluorophenyl)-8-hydroxy-5-(2-methylpyridin-4-yl)quinazolin-4(3H)-one]	0.01 µM	
O=c1[nH]cnc2c(O)cc(-c3ccc(F)cc3)c(-c3ccnc(N4CCOCC4)c3)c12 [Example 59, 6-(4-Fluorophenyl)-8-hydroxy-5-(2-morpholinopyridin-4-yl)quinazolin-4(3H)-one]	0.04 µM	
CN(C)c1ccc(-c2cc(O)c3nc[nH]c(=O)c3c2)cn1 [Example 60, 6-(6-(Dimethylamino)pyridin-3-yl)-8-hydroxyquinazolin-4(3H)-one 1:1 salt with trifluoroacetate]	0.02 µM	
CN1CC=C(c2c(-c3ccc(F)cc3)cc(O)c3nc[nH]c(=O)c23)CC1 [Example 61, 6-(4-Fluorophenyl)-8-hydroxy-5-(1-methyl-1,2,3,6-tetrahydropyridin-4-yl)quinazolin-4(3H)-one]		0.13 µM
O=c1[nH]cnc2c(O)cc(-c3cccc(N4CCOCC4)n3)cc12 [Example 62, 8-Hydroxy-6-(6-morpholinopyridin-2-yl)quinazolin-4(3H)-one]	0.01 µM	
O=c1[nH]cnc2c(O)cc(-c3cccc(N4CCCC4)n3)cc12 [Example 63, 8-Hydroxy-6-(6-(pyrrolidin-1-yl)pyridin-2-yl)quinazolin-4(3H)-one]	0.04 µM	
N#Cc1ccc(-c2c(-c3ccc(F)cc3)cc(O)c3nc[nH]c(=O)c23)cc1 [Example 64, 4-[6-(4-Fluoro-phenyl)-8-hydroxy-4-oxo-3,4-dihydro-quinazolin-5-yl]-benzonitrile]	0.01 µM	
Cc1ccc(C(O)c2cc(O)c3nc[nH]c(=O)c3c2)cc1 (stereo not drawn) [Example 65, 8-Hydroxy-6-(hydroxy(p-tolyl)methyl)quinazolin-4(3H)-one]	4.83 µM	
Cc1ccc(C(=O)c2cc(O)c3nc[nH]c(=O)c3c2)cc1 [Example 66, 8-Hydroxy-6-(4-methylbenzoyl)quinazolin-4(3H)-one]	0.1 µM	
O=c1[nH]cnc2c(O)cc(C(O)c3ccccc3)cc12 (stereo not drawn) [Example 67, 8-Hydroxy-6-(hydroxy(phenyl)methyl)quinazolin-4(3H)-one]	7.45 µM	
O=C(c1ccccc1)c1cc(O)c2nc[nH]c(=O)c2c1 [Example 68, 6-Benzoyl-8-hydroxy-3H-quinazolin-4-one]	0.06 µM	
O=c1[nH]cnc2c(O)cc(C3CCOCC3)cc12 [Example 69, 8-Hydroxy-6-(tetrahydro-2H-pyran-4-yl)quinazolin-4(3H)-one 2,2,2-trifluoroacetate]	1.04 µM	
COCc1cccc(-c2cc(O)c3nc[nH]c(=O)c3c2)c1 [Example 71, 8-Hydroxy-6-(3-(methoxymethyl)phenyl)quinazolin-4(3H)-one]		0.02 µM

Now from value to molecule, other results behind:

IC50 [1]	SMILES	IC50 (IC50, COMT-fluorescence assay)
0.02 µM	O=c1[nH]cnc2c(O)cc(C3=CCOCC3)cc12 [Example 70, 6-(3,6-Dihydro-2H-pyran-4-yl)-8-hydroxyquinazolin-4(3H)-one]	
0.03 µM	Cc1cnc(-c2cc(O)c3nc[nH]c(=O)c3c2)s1 [Example 72, 8-Hydroxy-6-(5-methylthiazol-2-yl)quinazolin-4(3H)-one]	
0.04 µM	Cn1ccnc1-c1cc(O)c2nc[nH]c(=O)c2c1 [Example 73, 8-Hydroxy-6-(1-methyl-1H-imidazol-2-yl)quinazolin-4(3H)-one]	
0.25 µM	O=C(c1cccnc1)c1cc(O)c2nc[nH]c(=O)c2c1 [Example 74, 8-Hydroxy-6-nicotinoylquinazolin-4(3H)-one]	
0.51 µM	Cn1cnc(-c2cc(O)c3nc[nH]c(=O)c3c2)c1 [Example 75, 8-Hydroxy-6-(1-methyl-1H-imidazol-4-yl)quinazolin-4(3H)-one]	
4.6 µM	Cc1onc(-c2ccccc2)c1-c1cc(O)c2nc[nH]c(=O)c2c1 [Example 76, 8-Hydroxy-6-(5-methyl-3-phenylisoxazol-4-yl)quinazolin-4(3H)-one]	
0.05 µM	CN(C)S(=O)(=O)n1cnc(-c2cc(O)c3nc[nH]c(=O)c3c2)c1 [Example 77, 4-(8-Hydroxy-4-oxo-3,4-dihydroquinazolin-6-yl)-N,N-dimethyl-1H-imidazole-1-sulfonamide]	
0.32 µM	Cc1noc(C)c1-c1cc(O)c2nc[nH]c(=O)c2c1 [Example 78, 6-(3,5-Dimethylisoxazol-4-yl)-8-hydroxyquinazolin-4(3H)-one]	
0.15 µM	Cn1cncc1-c1cc(O)c2nc[nH]c(=O)c2c1 [Example 79, 8-Hydroxy-6-(1-methyl-1H-imidazol-5-yl)quinazolin-4(3H)-one]	
0.09 µM	CCOC(=O)c1[nH]c(-c2cc(O)c3nc[nH]c(=O)c3c2)nc1C [Example 80, Ethyl 2-(8-hydroxy-4-oxo-3,4-dihydroquinazolin-6-yl)-4-methyl-1H-imidazole-5-carboxylate]	
0.01 µM	COC(=O)c1cc(C)c(-c2cc(O)c3nc[nH]c(=O)c3c2)s1 [Example 81, Methyl 5-(8-hydroxy-4-oxo-3,4-dihydroquinazolin-6-yl)-4-methylthiophene-2-carboxylate]	
0.04 µM	Cn1cc(-c2cc(O)c3nc[nH]c(=O)c3c2)c(C(F)(F)F)n1 [Example 82, 8-Hydroxy-6-(1-methyl-3-(trifluoromethyl)-1H-pyrazol-4-yl)quinazolin-4(3H)-one]	
0.06 µM	Cc1nnc(-c2cc(O)c3nc[nH]c(=O)c3c2)s1 [Example 83, 8-Hydroxy-6-(5-methyl-1,3,4-thiadiazol-2-yl)quinazolin-4(3H)-one]	
0.11 µM	COC(=O)c1csc(-c2cc(O)c3nc[nH]c(=O)c3c2)n1 [Example 84, Methyl 2-(8-hydroxy-4-oxo-3,4-dihydroquinazolin-6-yl)thiazole-4-carboxylate]	
0.17 µM	Cc1nc(-c2cc(O)c3nc[nH]c(=O)c3c2)cs1 [Example 85, 8-Hydroxy-6-(2-methylthiazol-4-yl)quinazolin-4(3H)-one]	
0.03 µM	O=c1[nH]cnc2c(O)cc(-c3cnc4ccccn34)cc12 [Example 86, 8-Hydroxy-6-(imidazo[1,2-a]pyridin-3-yl)quinazolin-4(3H)-one]	
0.23 µM	Cc1ncc(-c2cc(O)c3nc[nH]c(=O)c3c2)n1C [Example 87, 6-(1,2-Dimethyl-1H-imidazol-5-yl)-8-hydroxyquinazolin-4(3H)-one]	
0.12 µM	COC(=O)c1nn(C)cc1-c1cc(O)c2nc[nH]c(=O)c2c1 [Example 88, Methyl 4-(8-hydroxy-4-oxo-3,4-dihydroquinazolin-6-yl)-1-methyl-1H-pyrazole-3-carboxylate]	
0.02 µM	O=c1[nH]cnc2c(O)cc(-c3ccc(-c4ccccn4)s3)cc12 [Example 89, 8-Hydroxy-6-(5-(pyridin-2-yl)thiophen-2-yl)quinazolin-4(3H)-one]	
0.02 µM	O=c1[nH]cnc2c(O)cc(-c3cncs3)cc12 [Example 90, 8-Hydroxy-6-(thiazol-5-yl)quinazolin-4(3H)-one]	
0.1 µM	O=c1[nH]cnc2c(O)cc(-c3cscn3)cc12 [Example 91, 8-Hydroxy-6-(thiazol-4-yl)quinazolin-4(3H)-one]	
0.06 µM	O=c1[nH]cnc2c(O)cc(-c3cnsc3)cc12 [Example 92, 8-Hydroxy-6-(isothiazol-4-yl)quinazolin-4(3H)-one]	
0.16 µM	O=C(c1ccncc1)c1cc(O)c2nc[nH]c(=O)c2c1 [Example 93, 8-Hydroxy-6-isonicotinoylquinazolin-4(3H)-one]	
0.09 µM	Cc1ccc(C(=O)c2cc(O)c3nc[nH]c(=O)c3c2)s1 [Example 94, 8-Hydroxy-6-(5-methylthiophene-2-carbonyl)quinazolin-4(3H)-one]	
